# Tests used:
# [1] = tested on: carbonic anhydrase II (CAII); assay: Detection of small molecules by QCRS on CAII surface; format: binding; conditions: for frequency shift on CAII surface: 12.5 μM
# Protocol: The CAII surface was then used to capture 4-carboxybenzenesulfonamide (CBS […] in running PBSS buffer+0.25% MeOH).
# The same CAII surface was used to detect 12.5 μM 4-carboxybenzenesulfonamide, and 12.5 μM 5-(dimethylamino)-1-naphthalenesulfonamide.
# mouse anti-biotin IgG = assay: Detection of proteins by SPR: biotinylated BSA on Dextran T70-COOH-PDEA (428018) surfaces; format: binding; conditions: 10 μg/ml
# Protocol: 4 flow cells having polymer treated surfaces were prepared. Flow cells (FC) 1, 2 & 3—were all activated by exposure for 7 min to […] (200 mM/50 mM). FC 3 only was then treated for 7 min with 50 μg/ml mouse anti-biotin IgG in 10 mM NaOAc buffer pH 4.5. FC 2 only was coupled to 50 μg/ml an irrelevant mouse monoclonal IgG in 10 mM NaOAc buffer pH 4.5 (7 minute exposure). FC 1, 2, 3—were capped by treatment for 5 min with ethanolamine (1 M, pH 8.5). FC 4 comprised untreated polymer.
# Dextran T70-COOH-PDEA (428018) was deposited and mouse anti-biotin IgG was immobilised using the same procedure as in Example 7. The measurement of the immobilisation is shown in FIG. 12, which again is a graph of response (RU) against time (seconds).
frequency shift on CAII surface [1] [Hz],frequency shift on capture by CAII surface ([1]; 25 μm in running PBSS buffer + […] MeOH) [Hz],binding to anti-biotin IgG surface (FC3) (mouse anti-biotin IgG; FC3),"binding to control surfaces (FC1, 2 and 4) (mouse anti-biotin IgG; capped polymer, irrelevant mouse IgG, unactivated polymer)",Molecule
2.5,6,–,–,NS(=O)(=O)c1ccc(C(=O)O)cc1 [4-carboxybenzenesulfonamide]
1.2,–,–,–,CN(C)c1cccc2c(S(N)(=O)=O)cccc12 [5-(dimethylamino)-1-naphthalenesulfonamide]
–,–,Specific binding occurs,minimal non-specific binding,biotinylated BSA: biotinylated bovine serum albumin used as analyte

# Source: patent publication US20080026486A1, “Assay Methods, Materials and Preparations” (priority 2004, published 2008)
